Results: PMC9916616, “TZD-Based Hybrid Molecules Act as Dual Anti-Mycobacterium tuberculosis and Anti-Toxoplasma gondii Agents” (International Journal of Molecular Sciences, 2023)
Values after ≈ are worked out from the molar mass of the structure shown. Like-named read-outs stand apart in the source and are kept apart here.

What was measured:
[1] = test system: Toxoplasma gondii RH-GFP tachyzoites; assay: In vitro anti-Tg assay (RH-GFP tachyzoite proliferation in Hs27 cells); format: cell-based; details: for SI (selectivity index, CC30/IC50Tg): CC30 in Hs27 / IC50Tg; for IC50: Toxoplasma gondii, HS27, 96 h, read-out: IC50Tg in Tg-Infected Hs27 Cells
[2] = test system: Hs27 cells
[3] = test system: T98G glioblastoma cells; assay: Cytotoxicity against human glioblastoma T98G cells (MTT); format: cell-based; details: 24 h, read-out: IC50 against T98G cells
Experimental: The T98G glioblastoma cells (ATTC, CRL-1690, Manassas, VA, USA) were cultured in Dulbecco’s Modified Eagle Medium (DMEM, high glucose) (Sigma Aldrich, St. Louis, MO, USA), supplemented with 10% heat-inactivated FBS, penicillin (100 U/mL), and streptomycin (100 U/mL) (Sigma Aldrich, St. Louis, MO, USA). Cells were maintained in a humidified atmosphere of 5% CO2 and 95% air at 37 °C. Stock solutions of the investigated compounds (2, 7, 8 and 10, and temozolomide) were prepared by dissolving solid substances in sterile DMSO. T98G glioblastoma cells were seeded into 96-well sterile plates at a density of 4 × 10^4 cells/mL. After 24 h of incubation, the medium was removed from each well, and then the cells were incubated for the next 24 h with different concentrations of the investigated compounds ([…]) in the medium that contained 2% FBS. Viability of the T98G cells was evaluated using MTT assay. In brief, after 24 h of incubation of the cells with varying concentrations, 15 μL of MTT solution (5 mg/mL) was added to each well. After 3 h of incubation, […] (per well) of 10% SDS buffer solution was added. After overnight incubation, the absorbance was measured at 570 nm using a microplate reader (Epoch, BioTek Instruments, Winooski, VT, USA). Experiments were repeated three times, and the measurements in each experiment were run in quadruplicate. Viability of the investigated cells was expressed as % of the viability of the untreated cells.

[4] = test system: human red blood cells; assay: Hemolytic activity determination; format: cell-based
Experimental: Human red blood cell (RBC) concentrate was obtained from the Regional Blood Donation and Transfusion Centre (Lublin, Poland). The RBC concentrate (5 mL) was washed three times with sterile PBS and centrifuged at 500× g for 3 min. The obtained pellet was resuspended using sterile PBS in order to obtain a 2% suspension of RBCs, which was subsequently mixed with 1 mL of different concentrations (i.e., […]) of 2, 7, 8, and 10. The mixtures were incubated at 37 °C for 30 min and centrifuged at 1400× g for 10 min. The amount of free hemoglobin in the supernatants was measured spectrophotometrically at 405 nm. Negative and positive controls were performed by incubating RBCs with sterile PBS and 0.1% Triton-X, respectively. Each experiment was run in triplicate.

[5] = test system: Danio rerio embryos and larvae; assay: Fish embryo toxicity test (FET); format: in vivo; details: for Toxicity to zebrafish embryos and larvae: 5 µg/mL and 10 µg/mL, within 96 h of observation; for Mortality and deformity / Concentration at which the impact on occurrence of deformations was noticeable: zebrafish, 96 h exposure; for Mortality and deformity: concentrations above 50 μg/mL
Experimental: Danio rerio (Experimental Medicine Centre, Medical University of Lublin, Poland) were maintained at 28 ± 0.5 °C, under a 14/10 h light/dark cycle with standard aquaculture conditions. After mating, the fertilized eggs were collected within 30 min. Embryos were reared in E3 embryo medium (pH 7.1–7.3; […]) in an incubator (IN 110 Memmert GmbH, Germany) at 28 ± 0.5 °C. The eggs were examined to remove the unfertilized, coagulated and damaged samples. The FET test was performed based on the OECD Guidelines for the Testing Chemicals, Test No. 236. TZD hybrids were weighted, dissolved in DMSO as stock solutions, and diluted in E3 embryo medium to the indicated treatment concentrations. The stock of TZD hybrids and dilutions in E3 embryo medium were freshly prepared before testing. Embryos were incubated at each concentration (5, 10, 15, 25, 50, 75; 100 μg/mL) of TZD hybrids. The final DMSO concentration had no detectable effects on zebrafish development. The test was conducted in 24-well plates, with 5 embryos per well and 10 per group, in triplicate. The covered plates were kept at 28 ± 0.5 °C under the light/dark conditions (12 h/12 h). Embryonic viability, and the malformation rates of each treatment group were recorded at 24, 48, 72, and 96 hpf. All experiments were conducted in accordance with the National Institute of Health Guidelines for the Care and Use of Laboratory Animals and the European Community Council Directive for the Care and Use of Laboratory Animals (2010/63/EU). For the experiments on larvae up to 5 dpf, the agreement of the Local Ethical Commission is not required.

[6] = in vitro; format: in vitro ADME; details: PAMPA, pH 7.4
Experimental: BBB permeability of 2, 7, 8, and 10 was investigated using a parallel artificial membrane permeability assay (PAMPA) method. The PAMPA system, which consisted of a 96-well microfilter plate, was divided into the following two chambers: a donor at the bottom and an acceptor at the top, separated by a 120 µm thick microfilter disc coated with BBB lipid solution (Pion, Inc., Billerica, MA, USA). The solutions of 2, 7, 8, and 10 were prepared in dimethylsulfoxide (DMSO) at 4 mg/mL concentration, and then diluted with Prisma buffer (pH = 7.4) to obtain the donor drug solution with the final nominal concentration of 20 µg/mL. Then, 180 µL of the donor solution was added to the donor wells. Subsequently, each filter membrane of the top plate was coated with 5 µL of BBB-1 lipid solution (Pion Inc., Billerica, MA, USA) and the acceptor well was filled with 200 µL of brain sink buffer (BSB). The acceptor plate and the donor plate were sandwiched together and incubated at 37 °C for 180 min.
The permeability coefficient value (Pe) was calculated using the following equation: Pe=−ln (1−CA/Cequilibrium)/S×(1/VD+1/VA)×t where VD—donor volume, VA—acceptor volume, Cequilibrium—equilibrium concentration, Cequilibrium=CD×VD+CA×VA/VD+VA , CD—donor concentration, CA—acceptor concentration, S—membrane area and t—incubation time (in seconds).

[7] = concentration reducing Hs27 viability by 30%, MTT, 24 h

Row | SMILES | SI (selectivity index, CC30/IC50Tg) [1] | IC50 [1] [µg/mL] | CC30 in Hs27 Cells [2, 7] [µg/mL] | CC30 in Hs27 Cells ([2]; human) [µg/mL] | IC50 [3] [µg/mL] | Hemolytic activity (in words) [4] | Toxicity to zebrafish embryos and larvae [5] | Mortality and deformity [5] [%] | Papp at 180 min, 20 µg/mL [6] [×10⁻⁶ cm/s] | Concentration at which the impact on occurrence of deformations was noticeable [5] [ng/mL]
1 | O=C1C(O)=C([C@H]2CC[C@H](c3ccc(Cl)cc3)CC2)C(=O)c2ccccc21 [ATO, atovaquone, reference compound] | 227.55 | 0.24 (≈ 0.654 µM) | 54.26 (≈ 148 µM) |  |  |  |  |  |  | 
2 | CCc1nc(N)nc(N)c1-c1ccc(Cl)cc1 [PYR, pyrimethamine, reference compound] | 17.38 | 2.86 (≈ 11.5 µM) | 49.62 (≈ 200 µM) |  |  |  |  |  |  | 
3 | Nc1ccc(S(=O)(=O)Nc2ncccn2)cc1 [SDZ, sulfadiazine, reference compound] | 1.78 | 1250 (≈ 5010 µM) |  | 2230.61 (≈ 8910 µM) |  |  |  |  |  | 
4 | COc1cc(Cc2cnc(N)nc2N)cc(OC)c1OC [TRI, trimethoprim, reference compound] | 5.53 | 14.8 (≈ 50.9 µM) |  | 81.82 (≈ 282 µM) |  |  |  |  |  | 
5 | Cn1nnc2c(C(N)=O)ncn2c1=O [Temozolomide, temozolomide, reference compound] |  |  |  |  | > 100 |  |  |  |  | 
6 | O=C(/C=C1\SC(=O)NC1=O)Oc1cccc(/C=N/NC(=O)c2ccncc2)c1 [compound 1] | 9.92 | 12.9 (≈ 32.6 µM) | 128.27 (≈ 324 µM) |  |  |  |  |  |  | 
7 | O=C(CC1SC(=O)NC1=O)Oc1ccc(/C=N/NC(=O)c2ccncc2)cc1 (centres unmarked) [compound 2] | >118.93 | 8.37 (≈ 21 µM) | >995.98 |  | 19.4 ± 1.13 (≈ 48.6 µM) | no specific hemolytic activity | not toxic | 100 | 12.4 ± 1.02 | 
8 | COc1cc(/C=N/NC(=O)c2ccncc2)ccc1OC(=O)CC1SC(=O)NC1=O (centres unmarked) [compound 3] | >48.35 | 22.1 (≈ 51.7 µM) | >1071.05 |  |  |  |  |  |  | 
9 | CCOc1cc(/C=N/NC(=O)c2ccncc2)ccc1OC(=O)CC1SC(=O)NC1=O (centres unmarked) [compound 4] | 16.77 | 39 (≈ 88.2 µM) | 654.42 (≈ 1480 µM) |  |  |  |  |  |  | 
10 | O=C(CC1SC(=O)NC1=O)Oc1ccc(/C=N/NC(=O)c2ccncc2)cc1Cl (centres unmarked) [compound 5] | >44.48 | 24.3 (≈ 56.2 µM) | >1082.10 |  |  |  |  |  |  | 
11 | O=C(CC1SC(=O)NC1=O)Oc1ccc(/C=N/NC(=O)c2ccncc2)cc1Br (centres unmarked) [compound 6] | >43.81 | 27.2 (≈ 57.1 µM) | >1193.22 |  |  |  |  |  |  | 
12 | NC(=S)N/N=C/c1ccc(OC(=O)CC2SC(=O)NC2=O)cc1 (centres unmarked) [compound 7] | >148.28 | 5.94 (≈ 16.9 µM) | >880.97 |  | > 100 | no specific hemolytic activity | not toxic | 100 | 23.1 ± 0.71 | 25000
13 | NC(=S)N/N=C/c1ccc(OC(=O)CC2SC(=O)NC2=O)c(Cl)c1 (centres unmarked) [compound 8] | >110.67 | 8.74 (≈ 22.6 µM) | >967.09 |  | > 100 | no specific hemolytic activity | not toxic | 100 | 26.1 ± 1.3 | 25000
14 | NC(=S)N/N=C/c1ccc(OC(=O)CC2SC(=O)NC2=O)c(Br)c1 (centres unmarked) [compound 9] | >87.75 | 12.3 (≈ 28.5 µM) | >1078.21 |  |  |  |  |  |  | 
15 | NC(=S)N/N=C/c1ccc(OC(=O)/C=C2\SC(=O)NC2=O)cc1 [compound 10] | 58.71 | 5.32 (≈ 15.2 µM) | 312.27 (≈ 891 µM) |  | 94.6 ± 6.16 (≈ 270 µM) | no specific hemolytic activity | not toxic | 100 | 24.4 ± 0.93 | 
16 | COc1cc(/C=N/NC(N)=S)ccc1OC(=O)/C=C1\SC(=O)NC1=O [compound 11] | >78.81 | 12.1 (≈ 31.7 µM) | >951.00 |  |  |  |  |  |  | 
17 | NC(=S)N/N=C/c1ccc(OC(=O)/C=C2\SC(=O)NC2=O)c(Cl)c1 [compound 12] | >94.59 | 10.2 (≈ 26.4 µM) | >962.05 |  |  |  |  |  |  | 
